The text below walks through data of patent publication US20260315464A1, “COMPOSITIONS, METHODS, AND SYSTEMS FOR MODULATING SPLICING OF MSH3” (REVIR THERAPEUTICS, INC., priority 2023, published 2026).

The term EC50 denotes the concentration at which the effect is half-maximal. Low readings indicate greater potency, high ones weaker potency.

Holding throughout (type): cell-based
One experiment deals with MSH3 Exon 21A. The experiment in a line: Splicing and RNA expression changes, poison exon 21A (FIGS. 6-8). To be noted: FIG. 8; for total RNA: e.g., due to NMD. The source says:
(§1) Poison exons were identified in endogenous MSH3 genome by employing a proprietary bioinformatics pipeline screening for cryptic exons in combination with examining poison exon candidates that could be regulated by an agent described herein or by nonsense mediated decay (NMD) using cycloheximide. FIG. 6 and FIG. 7 illustrate identification of Exon 21A, but not Exon 21B, as a poison exon that could be regulated by the agent described herein. FIG. 8 and FIG. 9 illustrate mutations that can be introduced into the poison exon (Exon 21A and Exon 14A_1 or Exon 14A_2, respectively), where the mutated nucleotide bases (e.g., CAG) could further enhance the suppression of the MSH3 expression. Such mutations can be utilized as a method or a system for screening additional candidate agents. FIG. 8 illustrates splicing and RNA expression changes for targets regulated by an agent described herein. […] FIG. 8 also illustrates how mutating a poison exon (e.g., from ATA to CAG) increased percentage of splice inclusion of Exon 21A from 0.13 to 0.98. Such mutations can be useful for designing a method or a system for screening additional agents for modulating splicing in of poison exon into a mRNA (e.g., as shown in FIG. 10). FIG. 9 illustrates splicing and RNA expression changes for targets regulated by an agent described herein. […] FIG. 9 also illustrates how mutating the poison exon (e.g., from TGA to CAG) increased percentage of splice inclusion of Exon 14A_1 from 0.00 to 0.59. Such mutations can be useful for designing a method or a system for screening additional agents for modulating splicing in of poison exon into a mRNA (e.g., as shown in FIG. 10). […] FIG. 10A illustrates engineered minigene donor (e.g., by mutating endogenous trinucleotides to CAG as shown in FIG. 8 and FIG. 9) for driving expression of a luciferase reporter gene. FIG. 10B illustrates minigene PCR showing the presence of the poison exon comprising the CAG mutation. […] FIG. 10C illustrates increased luciferase signal generated by the presence of the minigene comprising the poison exon comprising the CAG mutation.

Experiment [1] relates to MSH3 Exon 14A_1 or Exon 14A_2. As to the kind of experiment: Splicing and RNA expression changes, poison exon 14A_1 or 14A_2 (FIG. 9). To be noted: for total RNA: e.g., due to NMD.
Text: as §1

The test system of the next experiment is MSH3. The experiment in a line: QPCR assay for levels of MSH3 upon compound treatment in HEK293T or AD293 cells (fold-change of MSH3 transcript, EC50 of MSH3 downregulation; total MSH3 exons 13/14, exons 20/21; Table 8). To be noted: for mrna remaining at 1 µM / mrna remaining at 10 µM: Homo sapiens, fold-change of the MSH3 transcript, normalized to GAPDH; for mrna remaining at 1 µM: 1 μM compound; for mrna remaining at 10 µM: 10 μM compound; for EC50: EC50 of MSH3 downregulation, XtalPi. A digest of the protocol:
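MSH3 mRNA was quantified by TaqMan qPCR covering exons 13/14, exons 20/21, exon 13/PE14A and exon 20/PE21A, with GAPDH as reference. Cells used were HEK293T or AD293, treated with compound at 1 μM and […].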

`C[C@@H]1C[C@@H]([C@H](O)CC2CC(=O)NC(=O)C2)C(=O)[C@@H](C)C1` [CHX, cycloheximide, reference compound]: in the experiment with MSH3 Exon 21A, the “poison exon expression (Exon 21A)” value was “increased poison exon expression” and the “total RNA” value was “decreased total RNA”. In addition, in experiment [1], the “poison exon expression (Exon 14A_1 or Exon 14A_2)” value is on record as “increased poison exon expression” and the “total RNA” value is “decreased total RNA”.

For the compound `CN(c1ccc(N2Cc3cnc(-c4cnn(C)c4)cc3C2=O)nn1)C1CCNCC1` [Compound 1, 2-(6-(methyl(piperidin-4-yl)amino)pyridazin-3-yl)-6-(1-methyl-1H-pyrazol-4-yl)-2,3-dihydro-1H-pyrrolo[3,4-c]pyridin-1-one], in the experiment on MSH3 Exon 21A, the “poison exon expression (Exon 21A)” value is “increased poison exon expression” and the “total RNA” value was “decreased total RNA”. In experiment [1], the “poison exon expression (Exon 14A_1 or Exon 14A_2)” value is on record as “increased poison exon expression” and the “total RNA” value is “decreased total RNA”.

Consider `Cc1nn(C)cc1-c1cnc2c(c1)C(=O)N(c1ccc(N(C)C3CC(C)(C)NC(C)(C)C3)nn1)C2` [Compound 156, 3-(1,3-dimethyl-1H-pyrazol-4-yl)-6-(6-(methyl(2,2,6,6-tetramethylpiperidin-4-yl)amino)pyridazin-3-yl)-6,7-dihydro-5H-pyrrolo[3,4-b]pyridin-5-one], for which, in the experiment with MSH3, the mrna remaining at 1 µM came to 81% and the mrna remaining at 10 µM was found to be 19%.

For the compound `Cc1ncc(-c2cnc3c(c2)C(=O)N(c2ccc(O[C@H]4C[C@]5(C)CC[C@](C)(C4)N5)nn2)C3)s1` [Compound 598, 6-(6-(((1R,3s,5S)-1,5-dimethyl-8-azabicyclo[3.2.1]octan-3-yl)oxy)pyridazin-3-yl)-3-(2-methylthiazol-5-yl)-6,7-dihydro-5H-pyrrolo[3,4-b]pyridin-5-one], in the experiment with MSH3, the mrna remaining at 1 µM was 62% and the mrna remaining at 10 µM amounted to 52%.

For the compound `Cn1ncc(-c2ccc3c(c2)C(=O)N(c2ccc(O[C@H]4C[C@]5(C)CC[C@](C)(C4)N5)nn2)C3)n1` [Compound 425, 2-(6-(((1R,3s,5S)-1,5-dimethyl-8-azabicyclo[3.2.1]octan-3-yl)oxy)pyridazin-3-yl)-6-(2-methyl-2H-1,2,3-triazol-4-yl)isoindolin-1-one], in the experiment with MSH3, the mrna remaining at 1 µM is 82% and the mrna remaining at 10 µM was 70%.

`Cc1nn(C)nc1-c1cnc2c(c1)C(=O)N(c1ccc(N3CCC[C@@H](NC(C)(C)C)C3)nn1)C2` [Compound 616, (R)-6-(6-(3-(tert-butylamino)piperidin-1-yl)pyridazin-3-yl)-3-(2,5-dimethyl-2H-1,2,3-triazol-4-yl)-6,7-dihydro-5H-pyrrolo[3,4-b]pyridin-5-one]: in the experiment on MSH3, the mrna remaining at 1 µM worked out at 100% and the mrna remaining at 10 µM was 67%.

Turning to `Cc1nn(C)cc1-c1cnc2c(c1)C(=O)N(c1ccc(OC3CC(C)(C)NC4(CC4)C3)nn1)C2` (stereo not drawn) [Compound 205, 3-(1,3-dimethyl-1H-pyrazol-4-yl)-6-(6-((5,5-dimethyl-4-azaspiro[2.5]octan-7-yl)oxy)pyridazin-3-yl)-6,7-dihydro-5H-pyrrolo[3,4-b]pyridin-5-one], in the experiment on MSH3, a half-maximal effect (EC50) was put at 1420 nM, the mrna remaining at 1 µM stood at 90% and the mrna remaining at 10 µM came out at 14%.

Turning to `Cc1nn(C)cc1-c1cc2c(c(Cl)n1)CN(c1ccc(N(C)[C@H]3C[C@]4(C)CC[C@](C)(C3)N4)nn1)C2=O` [Compound 90, 4-chloro-6-(1,3-dimethyl-1H-pyrazol-4-yl)-2-(6-(((1R,3s,5S)-1,5-dimethyl-8-azabicyclo[3.2.1]octan-3-yl)(methyl)amino)pyridazin-3-yl)-2,3-dihydro-1H-pyrrolo[3,4-c]pyridin-1-one], in the experiment on MSH3, the mrna remaining at 1 µM worked out at 38% and the mrna remaining at 10 µM came out at 18%.

For the compound `Cn1nc(Cl)c(-c2cc(F)c3c(c2)C(=O)N(c2ccc(N4CCN[C@@H](C(C)(C)C)C4)nn2)C3)n1` [Compound 637, (S)-2-(6-(3-(tert-butyl)piperazin-1-yl)pyridazin-3-yl)-6-(5-chloro-2-methyl-2H-1,2,3-triazol-4-yl)-4-fluoroisoindolin-1-one], in the experiment on MSH3, the mrna remaining at 1 µM is 150% and the mrna remaining at 10 µM was found to be 31%.

For `Cc1nn(C)nc1-c1cc(C#N)c2c(c1)C(=O)N(c1ccc(O[C@H]3C[C@]4(C)CC[C@](C)(C3)N4)nn1)C2` [Compound 681, 6-(2,5-dimethyl-2H-1,2,3-triazol-4-yl)-2-(6-(((1R,3s,5S)-1,5-dimethyl-8-azabicyclo[3.2.1]octan-3-yl)oxy)pyridazin-3-yl)-1-oxoisoindoline-4-carbonitrile], in the experiment with MSH3, the mrna remaining at 1 µM is 76% and the mrna remaining at 10 µM is 8%.

In the case of `Cn1nc(Cl)c(-c2cnc3c(c2)C(=O)N(c2ccc(N4CCC[C@@H](NC(C)(C)C)C4)nn2)C3)n1` [Compound 617, (R)-6-(6-(3-(tert-butylamino)piperidin-1-yl)pyridazin-3-yl)-3-(5-chloro-2-methyl-2H-1,2,3-triazol-4-yl)-6,7-dihydro-5H-pyrrolo[3,4-b]pyridin-5-one], in the experiment with MSH3, the mrna remaining at 1 µM came out at 93% and the mrna remaining at 10 µM was 70%.

Consider `Cc1nn(C)nc1-c1cc(F)c2c(c1)C(=O)N(c1ccc(N(C)[C@H]3C[C@]4(C)CC[C@](C)(C3)N4)nn1)C2` [Compound 294, 6-(2,5-dimethyl-2H-1,2,3-triazol-4-yl)-2-(6-(((1R,3s,5S)-1,5-dimethyl-8-azabicyclo[3.2.1]octan-3-yl)(methyl)amino)pyridazin-3-yl)-4-fluoroisoindolin-1-one], for which, in the experiment with MSH3, the half-maximal effective concentration (EC50) amounted to 480 nM, the mrna remaining at 1 µM came to 27% and the mrna remaining at 10 µM came to 12%.
